Data as given in article PMC4552778 (European Journal of Drug Metabolism and Pharmacokinetics, 2014).
Numbered stars: 1 amine (or outer) side, 2 acyl side, 3 side chain; on linkers, the order of the positions; unused ones are H or OH. Bridge positions count the residues as written; N and C are the ends. Square brackets hold non-standard residues; d marks the D form. Peptide text beside a SMILES is read from it. * marks the point of attachment. hTyr(3S-OH,4S-OH,3'-OSO3H) = N[C@H](C(=O)O)[C@H](O)[C@@H](O)c1ccc(O)c(OS(=O)(=O)O)c1; Orn(4R-OH,5R-OH) = O=C([C@H](C[C@@H](O)[C@@H](O)N[*:3])N[*:1])[*:2]; Pro(3S-OH,4S-Me) = C[C@H]1CN[C@H](C(=O)O)[C@H]1O; X1 = CCCCCOc1ccc(-c2cc(-c3ccc(C(=O)*)cc3)no2)cc1; Gln(3R-OH) = NC(=O)C[C@@H](O)[C@H](N)C(=O)O; Hyp = O=C(O)[C@@H]1C[C@@H](O)CN1

Columns and labels:
[1] = ref Dowell et al. [2007]; cited from earlier work
plasma protein = assay: Micafungin plasma protein binding by ultrafiltration; assay type: in vitro ADME, human; settings: 37 °C, range
[2] = system: plasma protein, primarily albumin; settings: primarily to albumin; ref Astellas Pharma; Hebert et al. [2005b]; cited from earlier work
Safety assessments = assay type: in vivo, human; settings: six AEs reported by four subjects of 19; single 100 mg IV dose

| Compound | Lower exposure in subjects with severe hepatic dysfunction compared with healthy controls [1] | Protein binding (plasma protein; healthy subjects, measurable in three subjects) | Protein binding (plasma protein; subjects with severe hepatic dysfunction, measurable in five subjects) | Protein bound in plasma [2] | Adverse events: seriousness and relation to drug (Safety assessments) |
| --- | --- | --- | --- | --- | --- |
| anidulafungin | 33% | – | – | – | – |
| CCCCCOc1ccc(-c2cc(-c3ccc(C(=O)N[C@H]4C[C@@H](O)[C@@H](O)NC(=O)[C@@H]5[C@@H](O)[C@@H](C)CN5C(=O)[C@H]([C@H](O)CC(N)=O)NC(=O)[C@H]([C@H](O)[C@@H](O)c5ccc(O)c(OS(=O)(=O)O)c5)NC(=O)[C@@H]5C[C@@H](O)CN5C(=O)[C@H]([C@@H](C)O)NC4=O)cc3)no2)cc1 [micafungin, Micafungin] (X1-[Orn(4R-OH,5R-OH)]T[Hyp][hTyr(3S-OH,4S-OH,3'-OSO3H)][Gln(3R-OH)][Pro(3S-OH,4S-Me)]; lactam 1-C) | – | 92.4–99.0% | 86.1–97.6% | > 99% | None of these AEs was considered to be serious or to be related to micafungin |
